In ChEMBL document CHEMBL3751799, “Fluorinated matrix metalloproteinases inhibitors--Phosphonate based potential probes for positron emission tomography” (Bioorg Med Chem, 2016) one finds IC50 and inhibition data, which are given here for 12 molecules.

pIC50: −log10 of the molar value. Activity calls are given as the source filed them. The rule behind the calls is not given here. Where only a bound is given, the exact number is not on record here.

The target of assay [1] is T1, 72 kDa type IV collagenase (Homo sapiens, UniProt P08253). In words: Inhibition of human MMP2 using (7-methoxycoumarin-4-yl) acetyl pro-Leu-Gly-Leu-[3-(2,4-dinitrophenyl)-L-2,3-diamino-propionyl]-Ala-Arg-NH2 as substrate preincubated for 30 mins followed by substrate addition by microplate reader analysis.
Target sequence in this assay (P08253 whole entry): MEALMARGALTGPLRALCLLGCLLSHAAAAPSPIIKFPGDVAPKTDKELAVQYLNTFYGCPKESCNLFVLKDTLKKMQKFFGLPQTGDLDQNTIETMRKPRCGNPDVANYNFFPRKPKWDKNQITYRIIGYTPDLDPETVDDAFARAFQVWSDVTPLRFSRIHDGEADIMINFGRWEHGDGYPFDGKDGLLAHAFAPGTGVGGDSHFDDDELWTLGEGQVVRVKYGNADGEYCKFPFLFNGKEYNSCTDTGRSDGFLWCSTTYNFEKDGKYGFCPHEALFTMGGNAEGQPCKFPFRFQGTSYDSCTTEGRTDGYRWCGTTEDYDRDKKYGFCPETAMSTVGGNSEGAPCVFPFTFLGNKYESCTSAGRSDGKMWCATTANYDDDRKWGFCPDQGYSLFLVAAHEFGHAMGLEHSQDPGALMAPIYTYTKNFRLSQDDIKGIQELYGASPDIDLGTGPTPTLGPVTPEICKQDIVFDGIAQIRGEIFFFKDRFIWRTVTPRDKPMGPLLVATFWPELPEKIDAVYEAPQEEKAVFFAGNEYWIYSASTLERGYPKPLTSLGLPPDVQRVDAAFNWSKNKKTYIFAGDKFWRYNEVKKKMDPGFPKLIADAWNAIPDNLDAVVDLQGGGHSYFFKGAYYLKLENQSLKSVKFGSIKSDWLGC
The target of assay [2] is T2, Collagenase 3 (Homo sapiens, UniProt P45452). In words: Inhibition of MMP13 (unknown origin) using (7-methoxycoumarin-4-yl) acetyl pro-Leu-Gly-Leu-[3-(2,4-dinitrophenyl)-L-2,3-diamino-propionyl]-Ala-Arg-NH2 as substrate preincubated for 30 mins followed by substrate addition by microplate reader analysis.
The target in assay [3] is T3, Matrix metalloproteinase-9 (Homo sapiens, UniProt P14780). In words: Inhibition of human MMP9 using (7-methoxycoumarin-4-yl) acetyl pro-Leu-Gly-Leu-[3-(2,4-dinitrophenyl)-L-2,3-diamino-propionyl]-Ala-Arg-NH2 as substrate preincubated for 30 mins followed by substrate addition by microplate reader analysis.
Assay [4] has as its target T4, Neutrophil collagenase (Homo sapiens, UniProt P22894). Kind of assay: Inhibition of MMP8 (unknown origin) using (7-methoxycoumarin-4-yl) acetyl pro-Leu-Gly-Leu-[3-(2,4-dinitrophenyl)-L-2,3-diamino-propionyl]-Ala-Arg-NH2 as substrate preincubated for 30 mins followed by substrate addition by microplate reader analysis.
Target sequence in this assay (P22894 whole entry): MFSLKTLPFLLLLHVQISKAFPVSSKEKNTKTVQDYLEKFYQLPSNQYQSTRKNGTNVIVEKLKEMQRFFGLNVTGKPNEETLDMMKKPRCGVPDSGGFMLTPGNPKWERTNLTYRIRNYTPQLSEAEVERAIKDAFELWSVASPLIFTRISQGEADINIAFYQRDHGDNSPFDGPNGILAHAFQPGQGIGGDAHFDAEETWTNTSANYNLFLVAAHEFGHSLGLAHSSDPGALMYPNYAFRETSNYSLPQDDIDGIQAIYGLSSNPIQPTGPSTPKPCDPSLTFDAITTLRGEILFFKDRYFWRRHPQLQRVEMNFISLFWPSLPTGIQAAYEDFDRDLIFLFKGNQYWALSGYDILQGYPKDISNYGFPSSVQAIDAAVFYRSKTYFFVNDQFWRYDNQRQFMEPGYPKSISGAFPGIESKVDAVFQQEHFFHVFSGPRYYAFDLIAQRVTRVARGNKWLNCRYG
Assay [5] concerns the target T3, Matrix metalloproteinase-9. In words: Inhibition of human MMP9 up to 100 uM using (7-methoxycoumarin-4-yl) acetyl pro-Leu-Gly-Leu-[3-(2,4-dinitrophenyl)-L-2,3-diamino-propionyl]-Ala-Arg-NH2 as substrate preincubated for 30 mins followed by substrate addition by microplate reader analysis.
For assay [6], the target named is T1, 72 kDa type IV collagenase. Kind of assay: Inhibition of human MMP2 up to 100 uM using (7-methoxycoumarin-4-yl) acetyl pro-Leu-Gly-Leu-[3-(2,4-dinitrophenyl)-L-2,3-diamino-propionyl]-Ala-Arg-NH2 as substrate preincubated for 30 mins followed by substrate addition by microplate reader analysis.
Target sequence in this assay (P08253 110-660 limits assumed): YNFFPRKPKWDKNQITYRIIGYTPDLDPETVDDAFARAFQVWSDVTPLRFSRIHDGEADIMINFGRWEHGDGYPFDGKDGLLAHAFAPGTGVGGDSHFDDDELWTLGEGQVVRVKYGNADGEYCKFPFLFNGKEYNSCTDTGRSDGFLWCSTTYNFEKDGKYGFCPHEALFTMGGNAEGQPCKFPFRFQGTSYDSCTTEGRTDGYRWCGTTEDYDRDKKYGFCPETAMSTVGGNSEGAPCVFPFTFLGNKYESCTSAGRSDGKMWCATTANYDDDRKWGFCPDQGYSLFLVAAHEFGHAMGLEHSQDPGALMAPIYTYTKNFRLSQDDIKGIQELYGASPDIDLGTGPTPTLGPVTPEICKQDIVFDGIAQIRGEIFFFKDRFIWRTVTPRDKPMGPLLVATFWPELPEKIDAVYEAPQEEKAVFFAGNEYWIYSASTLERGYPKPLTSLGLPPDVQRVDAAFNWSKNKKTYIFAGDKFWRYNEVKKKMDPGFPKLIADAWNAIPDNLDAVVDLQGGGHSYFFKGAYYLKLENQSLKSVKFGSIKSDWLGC
Assay [7] addresses T4, Neutrophil collagenase. Kind of assay: Inhibition of MMP8 (unknown origin) up to 100 uM using (7-methoxycoumarin-4-yl) acetyl pro-Leu-Gly-Leu-[3-(2,4-dinitrophenyl)-L-2,3-diamino-propionyl]-Ala-Arg-NH2 as substrate preincubated for 30 mins followed by substrate addition by microplate reader analysis.
Target sequence in this assay (P22894 101-467 limits assumed): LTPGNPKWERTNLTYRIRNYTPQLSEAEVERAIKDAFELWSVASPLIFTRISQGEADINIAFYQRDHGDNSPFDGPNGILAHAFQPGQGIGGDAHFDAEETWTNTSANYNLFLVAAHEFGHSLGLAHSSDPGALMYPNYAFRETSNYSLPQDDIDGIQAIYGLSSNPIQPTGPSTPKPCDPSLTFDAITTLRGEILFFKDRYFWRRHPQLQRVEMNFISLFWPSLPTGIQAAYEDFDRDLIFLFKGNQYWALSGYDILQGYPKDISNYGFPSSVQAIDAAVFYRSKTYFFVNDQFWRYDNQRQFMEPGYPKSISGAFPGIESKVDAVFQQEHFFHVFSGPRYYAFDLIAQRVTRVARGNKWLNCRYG
Assay [8] concerns the target T2, Collagenase 3. Kind of assay: Inhibition of MMP13 (unknown origin) up to 100 uM using (7-methoxycoumarin-4-yl) acetyl pro-Leu-Gly-Leu-[3-(2,4-dinitrophenyl)-L-2,3-diamino-propionyl]-Ala-Arg-NH2 as substrate preincubated for 30 mins followed by substrate addition by microplate reader analysis.

T3 sequence (P14780 whole entry): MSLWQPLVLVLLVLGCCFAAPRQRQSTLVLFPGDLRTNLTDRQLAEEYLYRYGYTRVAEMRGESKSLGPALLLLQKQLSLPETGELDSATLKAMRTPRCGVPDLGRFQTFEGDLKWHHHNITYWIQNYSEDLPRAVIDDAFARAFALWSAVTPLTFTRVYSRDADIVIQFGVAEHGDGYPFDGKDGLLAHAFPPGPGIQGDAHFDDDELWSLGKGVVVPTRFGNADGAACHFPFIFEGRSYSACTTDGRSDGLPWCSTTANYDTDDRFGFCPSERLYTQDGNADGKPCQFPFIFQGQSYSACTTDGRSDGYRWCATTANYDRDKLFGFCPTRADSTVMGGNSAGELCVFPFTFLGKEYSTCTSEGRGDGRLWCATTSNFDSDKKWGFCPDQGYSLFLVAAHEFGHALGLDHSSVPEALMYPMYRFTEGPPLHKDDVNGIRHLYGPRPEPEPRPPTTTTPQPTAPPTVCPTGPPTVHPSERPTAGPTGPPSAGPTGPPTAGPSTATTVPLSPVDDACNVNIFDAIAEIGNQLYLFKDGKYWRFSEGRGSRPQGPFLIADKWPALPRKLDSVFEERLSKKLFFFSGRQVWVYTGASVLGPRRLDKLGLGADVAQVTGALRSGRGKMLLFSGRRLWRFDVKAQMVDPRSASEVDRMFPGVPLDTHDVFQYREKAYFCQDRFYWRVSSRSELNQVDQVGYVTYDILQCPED

As a reminder, the pIC50 is −log10 of the IC50, conventionally taken in molar units. Higher therefore signals a small IC50. For `COc1ccc(-c2ccc(S(=O)(=O)N[C@@H](CCCCCF)P(=O)(O)O)cc2)cc1`, the negative-log IC50 (pIC50) is 8.19 in assay [1], 8.27 against Collagenase 3 [2] and 7.72 in assay [3].

As for `CC(C)C(NS(=O)(=O)c1ccc(-c2ccc(OCCF)cc2)cc1)P(=O)(O)O` (stereo not given), the pIC50 in assay [1] is 7.93; at Collagenase 3 [2] it was 8.62; in assay [3], 7.73.

As for `Cc1ccc(-c2ccc(S(=O)(=O)NC(C(C)C)P(=O)(O)O)cc2)s1` (stereo not given), the negative logarithm of the IC50 (pIC50) (in assay [1]; against Collagenase 3 [2]; at Neutrophil collagenase [4]; in assay [3]) was less than 4.00 in each case.

With `COc1ccc(S(=O)(=O)N(Cc2ccccc2)C(C(C)C)P(=O)(O)O)cc1` (stereo not given), the inhibition result (in assay [5]; in assay [6]; on Neutrophil collagenase [7]; at Collagenase 3 [8]) was “inactive” each time.

Take `CC(C)C(N(Cc1ccccc1)S(=O)(=O)c1ccc(-c2ccc(OCCF)cc2)cc1)P(=O)(O)O` (stereo not given): the pIC50 in assay [1] was 7.25; on Collagenase 3 [2] it was 7.14; at Neutrophil collagenase [4] it was 7.08; in assay [3], 7.02.

`CC(C)C(NS(=O)(=O)c1ccc(-c2ccc(F)nc2)cc1)P(=O)(O)O` (stereo not given): the pIC50 in assay [1] is 6.20; at Collagenase 3 [2], 5.99; against Neutrophil collagenase [4] it was less than 4.00; in assay [3], 6.41.

For the molecule `COc1ccc(S(=O)(=O)N(Cc2cccnc2)C(CC(C)C)P(=O)(O)O)cc1` (stereo not given), the inhibition entry (in assay [5]; in assay [6]; on Neutrophil collagenase [7]; on Collagenase 3 [8]) was “inactive” each time.

On to `COc1ccc(S(=O)(=O)N(Cc2ccccc2)C(CC(C)C)P(=O)(O)O)cc1` (stereo not given), for which the inhibition result (in assay [5]; in assay [6]; on Neutrophil collagenase [7]; on Collagenase 3 [8]) was “inactive” each time.

For the molecule `COc1ccc(-c2ccc(S(=O)(=O)NC(C(C)C)P(=O)(O)O)cc2)cc1` (racemic), the figures for the pIC50 (in assay [1]; at Collagenase 3 [2]; in assay [3]) were 8.03, 8.66 and 8.05, respectively.

In the case of `COCc1ccc(-c2ccc(S(=O)(=O)NC(C(C)C)P(=O)(O)O)cc2)s1` (stereo not given), the negative logarithm of the IC50 (pIC50) (in assay [1]; on Collagenase 3 [2]; against Neutrophil collagenase [4]; in assay [3]) was less than 4.00 in each case.

Regarding `COc1ccc(-c2ccc(S(=O)(=O)N[C@H](CCCCCF)P(=O)(O)O)cc2)cc1`, the pIC50 is 6.10 in assay [1], 7.03 on Collagenase 3 [2], 7.37 against Neutrophil collagenase [4] and less than 4.00 in assay [3].

For `COc1ccc(S(=O)(=O)N(Cc2cccnc2)C(C(C)C)P(=O)(O)O)cc1` (stereo not given), the inhibition entry (in assay [5]; in assay [6]; at Neutrophil collagenase [7]; at Collagenase 3 [8]) was “inactive” throughout.
